{
  "source": "patent US20220401586A1",
  "about": "“CARBON QUANTUM DOTS AND USES THEREOF” (CNANO MEDICINE CORP., priority 2019, published 2022)",
  "key": {"LAT1 [1]": {"molecular_target": "T1, LAT1 (Homo sapiens, UniProt Q01650)", "T1 construct": "we treated HeLa cells with an excess of leucine (Leu), phenylalanine (Phe), or glycine (Gly) prior to adding LAAM TC-CQDs; endogenous in cells; host or cells: HeLa (also A549, PANC-1, MCF-7, MDA-MB-231, MDA-MB-231 SP in the flow cytometry)", "T1 sequence (Q01650 whole entry)": "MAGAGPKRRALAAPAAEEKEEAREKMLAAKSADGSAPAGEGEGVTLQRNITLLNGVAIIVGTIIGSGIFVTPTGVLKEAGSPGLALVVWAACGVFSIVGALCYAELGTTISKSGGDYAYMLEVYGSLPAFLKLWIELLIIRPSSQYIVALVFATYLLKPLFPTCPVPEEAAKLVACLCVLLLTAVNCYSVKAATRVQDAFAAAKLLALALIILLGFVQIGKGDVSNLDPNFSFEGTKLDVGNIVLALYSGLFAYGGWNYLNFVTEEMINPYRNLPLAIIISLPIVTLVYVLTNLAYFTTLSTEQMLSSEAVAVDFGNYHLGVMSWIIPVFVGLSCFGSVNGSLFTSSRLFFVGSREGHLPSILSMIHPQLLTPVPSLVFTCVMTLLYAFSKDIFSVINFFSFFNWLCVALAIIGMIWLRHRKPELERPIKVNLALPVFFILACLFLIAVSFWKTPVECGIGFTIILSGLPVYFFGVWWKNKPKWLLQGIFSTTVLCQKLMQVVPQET", "T1 sequence (P08195 102-630 partner)": "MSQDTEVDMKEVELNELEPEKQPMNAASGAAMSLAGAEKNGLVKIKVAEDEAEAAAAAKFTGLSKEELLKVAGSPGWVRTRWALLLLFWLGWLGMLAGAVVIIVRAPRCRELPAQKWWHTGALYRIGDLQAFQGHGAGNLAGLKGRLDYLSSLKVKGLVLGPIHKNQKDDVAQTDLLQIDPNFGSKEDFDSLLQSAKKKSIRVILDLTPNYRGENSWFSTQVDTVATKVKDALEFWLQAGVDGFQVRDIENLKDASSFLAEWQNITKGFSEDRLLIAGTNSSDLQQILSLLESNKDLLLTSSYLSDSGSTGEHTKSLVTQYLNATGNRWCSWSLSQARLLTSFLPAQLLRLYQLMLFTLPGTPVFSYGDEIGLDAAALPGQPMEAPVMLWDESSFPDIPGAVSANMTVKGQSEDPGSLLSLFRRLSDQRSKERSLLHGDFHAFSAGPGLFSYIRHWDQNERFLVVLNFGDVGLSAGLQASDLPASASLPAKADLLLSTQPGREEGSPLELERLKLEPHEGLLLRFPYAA", "assay": "LCSM: effect of Leu, Phe, Gly or BCH pre-treatment on uptake of LAAM TC-CQDs", "format": "cell-based", "conditions": "HeLa cells, excess of the agent prior to adding LAAM TC-CQDs", "procedure": "(§1) To investigate the mechanism that accounts for the cellular uptake of LAAM TC-CQDs, we treated HeLa cells with an excess of leucine (Leu), phenylalanine (Phe), or glycine (Gly) prior to adding LAAM TC-CQDs. Except Gly, both Leu and Phe are known to be high-affinity substrates to LAT1^27. […] This hypothetical mechanism is supported by several lines of evidence.\nConfocal laser scanning microscope imaging. […] After 8 h, cells were washed with PBS twice, fixed with 4% polyformaldehyde for 30 min at room temperature, followed by addition of DAPI for cell nuclei staining. Finally, the slides were washed three times, fixed, sealed with cover glasses, and imaged with excitation/emission: 561/700 using a confocal laser scanning microscopy (Leica TCS-SP8, Germany). To determine the effects of Leu, Phe, Gly or BCH on CQD uptake, HeLa cells were placed and treated with Leu, Phe, Gly or BCH. Four hours later, LAAM TC-CQDs were added to cells. After an additional 8 h, the cells were washed, fixed, and imaged."}, "LAT1 [2]": {"molecular_target": "T1, LAT1", "assay": "Flow cytometry: uptake rate of LAAM TC-CQDs after BCH pre-treatment", "format": "cell-based", "conditions": "across HeLa, A549, PANC-1, MCF-7, MDA-MB-231, MDA-MB-231 SP cells", "source_text": "as §1\nFlow cytometry. MDA-MB-231 SP cells were sorted according to our previously reported methods^22. Briefly, cells harvested at about 85% confluence were resuspended in RPMI-1640 supplemented with 2% fetal bovine serum (FBS) at a density of 1×10^6 cells/mL and incubated with Hoechst 33342 at a concentration of 5 μg/mL at 37° C. After 90 min, the cells were suspended in cold PBS at a concentration of 1×10^6 cells/mL, filtered through a 40 μm cell strainer to remove cell aggregates, stained with 1 μg/mL propidium iodide (PI), and analyzed and sorted using a FACSDiva (Becton Dickinson, USA). […] The cells were washed 3 times with cold PBS, resuspended in […] of cold PBS, and analyzed by a FACScan flow cytometer (BD, Ann Arbor, Mich.). […] After 12 h, the cells were washed with fresh medium, trypsinized, resuspended in PBS with 0.5% FBS, and analyzed using a BD FACSCalibur (BD Biosciences, USA). Data were analyzed using FlowJo 7.6."}, "HeLa tumors": {"system": "HeLa tumors", "assay": "Therapeutic evaluation in mice bearing HeLa tumors", "format": "in vivo", "conditions": "for tumors fifteen days later: intravenous", "procedure": "We assessed TPTC/TC-CQDs for cancer treatment using mice bearing HeLa tumors. […]\nTherapeutic evaluation in tumor-bearing mice. HeLa cells were subcutaneously inoculated into female BALB/c mice. When the tumor volumes reached ˜100 mm^3, the mice were intravenously administered with, saline, TPTC or TPTC/TC-CQDs (n=5). Changes in tumor volume and body weight were monitored daily. The volume of the tumor was calculated according to the following formula: V=D×d^2/2 (where D and d are the longest and shortest diameters of tumor, respectively, measured using a vernier caliper). Relative tumor volumes were calculated as V/V0(V0 is the initial tumor volume when the treatment was started)."}, "CCC-ESF-1 cells": {"system": "CCC-ESF-1 cells", "assay": "Cellular toxicity test (CCK-8)", "format": "cell-based, Human", "conditions": "concentration equivalent to 5 ug/mL TPTC", "procedure": "(§2) Cellular toxicity tests. […] After 12 h, the cultured medium was removed, and washed with PBS. One hundred microliters of fresh medium containing 10 μL CCK-8 (Sigma) was added to each well. After 2 h incubation at 37° C., the absorbance at 450 nm was measured using a microplate reader."}, "HeLa cells": {"system": "HeLa cells", "assay": "Cellular toxicity test (CCK-8)", "format": "cell-based, Human", "conditions": "concentration equivalent to 5 ug/mL TPTC", "procedure": "as §2"}, "in vivo [3]": {"assay": "in vivo", "conditions": "BALB/c, mouse", "procedure": "We repeated the characterization studies using A549 tumours. Experiments were carried out according to the same procedures as described above."}, "in vivo [4]": {"assay": "in vivo", "conditions": "BALB/c, mouse, iv", "procedure": "We determined the pharmacokinetics of TPTC/TC-CQDs in mice bearing HeLa tumors. TPTC or TPTC/TC-CQDs were administered intravenously at a dose equivalent to 10 mg/kg TPTC, and the blood was collected at various time points. TPTC in the plasma was quantified by high performance liquid chromatography (HPLC). […] A second cohort of mice received the same treatment was subjected to characterization for biodistribution of TPTC based on TPTC fluorescence.\nThe same lipid composition was used in several FDA-approved liposomal formulations, including Doxil© 38. […] The blood was collected at various time points. TPTC in the plasma was quantified by high performance liquid chromatography (HPLC)."}, "[5]": {"assay": "Toxicity evaluation in mice", "format": "in vivo", "procedure": "Toxicity evaluation in mice. Female BALB/c mice were intravenously administered with TPTC (10 mg/kg, 0.05 mL per mice) or TPTC/TC-CQDs (10 mg/kg for TPTC, 0.05 mL per mice) (n=5). Mice treated with saline were used as controls. At selected time points, blood samples were collected in heparinized microhematocrit tubes and centrifuged at a speed of 3000 rpm for 10 min. At the end of the study, mice were euthanized. Major organs, including the heart, liver, spleen, kidney and lung were excised, fixed in formalin, and analyzed."}, "[6]": {"conditions": "10 mg/kg TPTC (or equivalent) at days 1, 4, 8, and 12"}},
  "note": "Where a name gives a salt, the structure may show the parent alone.",
  "data": [
    {"compound": "NCC(=O)O", "note": "[Gly, glycine]", "values": [
      {"measurement": "effect of pre-treatment on uptake of LAAM TC-CQDs", "setting": "LAT1 [1]", "result": "not"}
    ]},
    {"compound": "NC1(C(=O)O)CC2CCC1C2", "note": "(stereo not shown) [BCH, 2-aminobicyclo-(2,2,1)-heptane-2-carboxylic acid]", "values": [
      {"measurement": "cellular uptake rate of LAAM TC-CQDs after pre-treatment with BCH", "setting": "LAT1 [2]", "result": "~20", "unit": "%"},
      {"measurement": "effect of pre-treatment on uptake of LAAM TC-CQDs", "setting": "LAT1 [1]", "result": "dramatically reduces"}
    ]},
    {"compound": "CC[C@@]1(O)C(=O)OCc2c1cc1n(c2=O)Cc2cc3c(CN(C)C)c(O)ccc3nc2-1", "note": "[TPTC, topotecan hydrochloride]", "values": [
      {"measurement": "median survival", "setting": "HeLa tumors; 2 mg/kg TPTC (or equivalent)", "result": 30, "unit": "days"},
      {"measurement": "survival", "setting": "HeLa tumors; [6]", "result": 40, "unit": "days"},
      {"measurement": "tumors fifteen days later", "setting": "HeLa tumors; 2 mg/kg TPTC (or equivalent) at days 1, 4, 8, and 12", "result": "continuously grew"},
      {"measurement": "tumors fifteen days later", "setting": "HeLa tumors; [6]", "result": "continuously grew"},
      {"measurement": "toxicity to non-cancerous CCC-ESF-1 cells", "setting": "CCC-ESF-1 cells", "result": "inhibited both cells at a comparable efficiency"},
      {"measurement": "toxicity to HeLa cells", "setting": "HeLa cells", "result": "inhibited both cells at a comparable efficiency"},
      {"measurement": "half-life", "setting": "in vivo [3]", "result": 5.9, "unit": "min"},
      {"measurement": "half-life", "setting": "in vivo [4]; 2 mg/kg", "result": 5.4, "unit": "min"},
      {"measurement": "half-life", "setting": "in vivo [4]; 10 mg/kg", "result": 5, "unit": "min"},
      {"measurement": "H&E analysis of major organs", "setting": "[5]", "result": "obvious myocardial fiber rupture, diffuse ballooning degeneration of hepatocytes, pulmonary hyperemia, and focal tubular necrosis"},
      {"measurement": "body weight", "setting": "[5]; throughout the study", "result": "weight loss was observed"}
    ]},
    {"compound": "N[C@@H](Cc1ccccc1)C(=O)O", "note": "[Phe, phenylalanine]", "values": [
      {"measurement": "effect of pre-treatment on uptake of LAAM TC-CQDs", "setting": "LAT1 [1]", "result": "significantly inhibited"}
    ]},
    {"compound": "CC(C)C[C@H](N)C(=O)O", "note": "[Leu, leucine]", "values": [
      {"measurement": "effect of pre-treatment on uptake of LAAM TC-CQDs", "setting": "LAT1 [1]", "result": "significantly inhibited"}
    ]}
  ]
}
